Laboratory results published in paper PMC12389735, “Polyoxypregnane Aryl Esters Prepared from Metaplexis japonica (Thunb.) Makino and Their Role in Reversing Multidrug Resistance in HepG2/Dox Cells” (Pharmaceuticals, 2025).
Values belong to the compound of their own block, whether it stands above or below them.

What was measured:
P-gp [1] = molecular target: T1, P-gp (Homo sapiens, UniProt P08183); assay: Rhodamine 123 efflux assay for P-gp function in HepG2/Dox cells; assay type: cell-based; settings: 10 μM, 5 μM Rh-123, 40 min; vs Rh-123 alone
T1 construct: Doxorubicin-induced P-gp overexpression HepG2/Dox subline was a gift from Prof; Fong; endogenous in cells; host or cells: HepG2/Dox (doxorubicin-induced P-gp-overexpressing subline of HepG2)
Method: After removal of the medium via centrifugation, the cells were washed with ice-cold PBS twice, resuspended in 300 μL ice-cold PBS, and transferred into flow cytometer tubes. Cellular fluorescence intensity was analyzed immediately using flow cytometry.

Human ABCB1 = molecular target: T2, Human ABCB1 (Homo sapiens, UniProt P08183); assay: Surface plasmon resonance binding to full-length ABCB1 (Biacore); settings: SPR; for Kd: CM5 chip, read-out: KD (equilibrium dissociation constant)
T2 construct: Flag; purchased MedChemExpress HY-P703175; host or cells: HEK293
Method: The human recombinant ABCB1 full-length protein (HEK293, Flag) (MedChemExpress, Monmouth Junction, NJ, USA; #HY-P703175) was coupled onto a CM5 sensor chip (Cytiva, Marlborough, MA, USA; #BR-1005-30) via carboxyl groups on the dextran. After incubation, a series of concentrations of compound 1 or 1a flowed through the protein–CM5 system. Binding was tested and analyzed using a Biacore K8 instrument (GE Healthcare, Chicago, IL, USA) and Biacore Insight evaluation software (https://www.cytivalifesciences.com/en/us, accessed on 5 August 2025) (Cytiva, Marlborough, MA, USA).

HepG2/Dox cells [2] = assay: Annexin V/PI apoptosis by flow cytometry in HepG2/Dox cells; assay type: cell-based, Human; settings: 24 h; for Apoptosis rates of HepG2/Dox cells: 10 μM in combination with 500 nM paclitaxel, vs PTX alone
Method: Cells were then incubated for another 24 h in 2 mL fresh medium containing the test samples. The medium and cells (digested by EDTA-free trypsin) were collected and centrifuged (1000 rpm, 5 min). The cells were then suspended in PBS and stained using the Annexin V/PI kit by following the procedures provided with the kit, and the apoptosis rate of cells with different treatments was analyzed using flow cytometry.

HepG2/Dox cells [3] = assay: CCK-8 cell viability / reversal of P-gp-mediated MDR in HepG2/Dox cells; assay type: cell-based, Human; settings: for Cytotoxicity to HepG2/Dox cells (viability): compound alone at 5 or 10 μM; for Cytotoxicity to HepG2/Dox cells (viability) / IC50: 48 h; for Reversal of resistance of HepG2/Dox cells to paclitaxel and vinblastine: non-cytotoxic concentrations (10 μM); for IC50: Homo sapiens, HepG2/Dox, anticancer drug alone, CCK-8, read-out: IC50 ± SD HepG2/Dox; for Fsen (fold increase in sensitivity): drug alone (reference); for Fres (fold of resistance): drug alone, IC50 in HepG2/Dox / IC50 in HepG2
[4] = Bidirectional transport assay on Caco-2 cell monolayers; settings: human; for Papp B→A at 2 h: Caco-2, pH 7.4; for Papp A→B at 2 h, 2 μM: Caco-2, pH 7.4, Apparent permeability coefficient (Papp) from AP to BL; for Papp A→B at 2 h: Caco-2, pH 7.4, A→B Transport Papp, pH 7.40; for Papp A→B at 2 h / recovery at 2 h: compound 1, 1a 2 μM, digoxin 10 μM
Caco-2 cell monolayers = assay: as above; settings: from ER values of less than 2
P-gp [5] = assay: Western blotting of P-gp expression in HepG2/Dox cells; assay type: cell-based, Human; settings: alone or in combination with paclitaxel
Method: (§1) In 100 mm culture dishes, 1 × 10^6 cells in 10 mL medium were seeded and incubated for 24 h, and then incubated with the test sample in 10 mL fresh medium for another 24 h. Total proteins were extracted using RIPA cell lysis buffer containing PMSF while protein content was determined using the BCA kit. An equal amount of the protein sample was subjected to SDS-PAGE for separation and transferred to PVDF membranes. The membranes were blocked in 5% defat milk at RT for 1 h, and then incubated with the primary antibody of the protein of interest (P-gp, caspase 8 or caspase 9) or GAPDH (internal standard) at 4 °C overnight, and then with the secondary antibody at RT for 1 h. Protein bands were detected under the chemiluminescence scanner, while Image J was employed to analyze the gray value of the protein bands.

caspase 8 = assay: Western blotting of caspase 8 expression in HepG2/Dox cells; assay type: cell-based, Human
Method: as §1

caspase 9 = assay: Western blotting of caspase 9 expression in HepG2/Dox cells; assay type: cell-based, Human
Method: as §1

[6] = Caco-2, pH 7.4, A→B Transport Solution Recovery %
[7] = Caco-2, pH 7.4, B→A Transport Solution Recovery %
[8] = 10 μM combined with paclitaxel 0.5 μM
[9] = alone: paclitaxel 0.5 μM, compound 1 or 1a 10 μM

T2 sequence (P08183 whole entry): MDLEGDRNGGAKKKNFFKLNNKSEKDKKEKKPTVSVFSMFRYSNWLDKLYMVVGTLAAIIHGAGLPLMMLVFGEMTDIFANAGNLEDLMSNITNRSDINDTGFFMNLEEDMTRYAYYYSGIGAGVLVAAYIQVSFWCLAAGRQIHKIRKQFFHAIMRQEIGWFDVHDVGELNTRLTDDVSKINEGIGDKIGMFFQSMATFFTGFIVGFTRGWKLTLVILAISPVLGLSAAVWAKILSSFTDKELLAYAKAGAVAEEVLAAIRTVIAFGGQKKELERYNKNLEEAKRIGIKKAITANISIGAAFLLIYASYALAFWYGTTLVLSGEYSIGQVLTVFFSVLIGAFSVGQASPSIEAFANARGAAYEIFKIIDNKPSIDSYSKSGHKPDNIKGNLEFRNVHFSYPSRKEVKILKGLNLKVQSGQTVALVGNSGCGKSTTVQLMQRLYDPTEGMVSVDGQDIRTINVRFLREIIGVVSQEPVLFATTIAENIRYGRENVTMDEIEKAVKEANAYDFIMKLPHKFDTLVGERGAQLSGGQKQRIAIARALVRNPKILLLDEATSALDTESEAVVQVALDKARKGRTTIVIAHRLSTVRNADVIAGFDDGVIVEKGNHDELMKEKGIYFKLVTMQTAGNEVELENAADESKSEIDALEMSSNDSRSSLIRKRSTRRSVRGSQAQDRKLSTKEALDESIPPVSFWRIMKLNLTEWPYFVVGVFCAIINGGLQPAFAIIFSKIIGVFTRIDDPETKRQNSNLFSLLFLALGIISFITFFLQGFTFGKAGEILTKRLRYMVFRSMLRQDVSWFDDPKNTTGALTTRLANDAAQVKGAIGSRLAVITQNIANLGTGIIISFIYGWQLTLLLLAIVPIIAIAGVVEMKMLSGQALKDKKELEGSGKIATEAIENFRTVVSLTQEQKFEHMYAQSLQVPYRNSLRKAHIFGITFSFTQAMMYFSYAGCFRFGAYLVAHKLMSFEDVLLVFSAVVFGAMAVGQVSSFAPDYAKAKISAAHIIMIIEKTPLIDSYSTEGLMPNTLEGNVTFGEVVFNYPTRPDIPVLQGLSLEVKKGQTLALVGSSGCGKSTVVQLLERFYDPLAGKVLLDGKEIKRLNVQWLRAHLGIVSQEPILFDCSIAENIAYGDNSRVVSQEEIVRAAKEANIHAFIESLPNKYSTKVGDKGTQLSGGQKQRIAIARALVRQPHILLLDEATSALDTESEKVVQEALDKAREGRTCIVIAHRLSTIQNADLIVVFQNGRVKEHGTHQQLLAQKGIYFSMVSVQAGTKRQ
T1 sequence (P08183 whole entry): as above

- Papp B→A at 2 h [4]: 22.3 ± 1.02 ×10⁻⁶ cm/s
- Papp A→B at 2 h [4]: 0.12 ± 0.02 ×10⁻⁶ cm/s
- recovery at 2 h [4, 6]: 97.9 ± 8.1%
- recovery at 2 h [4, 7]: 94.4 ± 1.9%
SMILES: C[C@H]1O[C@@H](O[C@H]2[C@@H](O)C[C@H](O[C@H]3[C@@H](O)C[C@H](O[C@H]4CC[C@@]5(C)[C@H](CC[C@@H]6[C@@H]5C[C@@H](O)[C@]5(C)[C@@H](C7=CC(=O)OC7)CC[C@]65O)C4)O[C@@H]3C)O[C@@H]2C)C[C@H](O)[C@@H]1O [Digoxin, reference compound]

- IC50 (HepG2/Dox cells [3]): 6.03 ± 1.15 µM
SMILES: COc1cccc2c1C(=O)c1c(O)c3c(c(O)c1C2=O)C[C@@](O)(C(=O)CO)C[C@@H]3O[C@H]1C[C@H](N)[C@H](O)[C@H](C)O1 [Doxorubicin, reference compound]
- Fsen (fold increase in sensitivity) (HepG2/Dox cells [3]): 1
- Fres (fold of resistance) (HepG2/Dox cells [3]): 35.5

- IC50 (HepG2/Dox cells [3]): 4.03 ± 0.06 µM
SMILES: CC(=O)O[C@H]1C(=O)[C@@]2(C)[C@H]([C@H](OC(=O)c3ccccc3)[C@]3(O)C[C@H](OC(=O)[C@H](O)[C@@H](NC(=O)c4ccccc4)c4ccccc4)C(C)=C1C3(C)C)[C@]1(OC(C)=O)CO[C@@H]1C[C@@H]2O [Paclitaxel, reference compound]
- Cell apoptosis in HepG2/Dox cells (HepG2/Dox cells [2]; 500 nM alone): did not induce cell apoptosis
- Expression of caspase 8 (caspase 8; [9]): did not change
- Expression of caspase 9 (caspase 9; [9]): did not change

- IC50 (HepG2/Dox cells [3]): 2.38 ± 0.62 µM
SMILES: CC[C@]1(O)C[C@@H]2CN(CCc3c([nH]c4ccccc34)[C@@](C(=O)OC)(c3cc4c(cc3OC)N(C)[C@H]3[C@@](O)(C(=O)OC)[C@H](OC(C)=O)[C@]5(CC)C=CCN6CC[C@]43[C@@H]65)C2)C1 [Vinblastine, reference compound]
- Fsen (fold increase in sensitivity) (HepG2/Dox cells [3]): 1
- Fres (fold of resistance) (HepG2/Dox cells [3]): 140.0
- Fres (fold of resistance) (HepG2/Dox cells [3]; listed as vinblastine): 140

The remaining lines, values behind:

SMILES: CC(O)C1(O)CCC2(O)C3CCC4CC(O)CCC4(C)C3CC(OC(=O)C=Cc3ccccc3)C12C [Compound 1, 3β,12β,14β,17β,20(S)-pentahydroxy-5α-pregnan-12β-O-(E)-cinnamate]
- Fluorescence intensity of Rh-123 in cells (inhibited efflux) (P-gp [1]): significantly increased
- Ka (association rate constant) (Human ABCB1): 65800 M⁻¹ s⁻¹
- Kd (dissociation rate constant) (Human ABCB1): 0.364 s⁻¹
- Kd (Human ABCB1): 5.53 µM
- Ka (association rate constant) (Human ABCB1; listed as compound 1): > 10^4 M^−1s^−1
- Kd (dissociation rate constant) (Human ABCB1; listed as compound 1): > 10^−1 s^−1
- Apoptosis rates of HepG2/Dox cells (HepG2/Dox cells [2]): significantly increased
- Cytotoxicity to HepG2/Dox cells (viability) (HepG2/Dox cells [3]): non-cytotoxic
- Fres to doxorubicin (HepG2/Dox cells [3]; doxorubicin + modulator 5 µM): 13.7
- Fsen to doxorubicin (HepG2/Dox cells [3]; doxorubicin + modulator 5 µM): 2.6
- Fres to doxorubicin (HepG2/Dox cells [3]; doxorubicin + modulator 10 µM): 5.0
- Fsen to doxorubicin (reversal fold) (HepG2/Dox cells [3]; doxorubicin + modulator 10 µM): 7.1
- Reversal of resistance of HepG2/Dox cells to paclitaxel and vinblastine (HepG2/Dox cells [3]): completely reversed
- Fres to paclitaxel (HepG2/Dox cells [3]; paclitaxel + modulator 5 µM): 3.9
- Fsen to paclitaxel (HepG2/Dox cells [3]; paclitaxel + modulator 5 µM): 33.6
- Fres to paclitaxel (HepG2/Dox cells [3]; paclitaxel + modulator 10 µM): 1.1
- Fsen to paclitaxel (reversal fold) (HepG2/Dox cells [3]; paclitaxel + modulator 10 µM): 118.5
- Fres to vinblastine (HepG2/Dox cells [3]; vinblastine + modulator 5 µM): 1.5
- Fsen to vinblastine (HepG2/Dox cells [3]; vinblastine + modulator 5 µM): 91.5
- Fres to vinblastine (HepG2/Dox cells [3]; vinblastine + modulator 10 µM): 0.7
- Fsen to vinblastine (reversal fold) (HepG2/Dox cells [3]; vinblastine + modulator 10 µM): 198.3
- Papp B→A at 2 h [4]: 7.71 ± 0.61 ×10⁻⁶ cm/s
- Papp A→B at 2 h, 2 μM [4]: 9.28 ×10⁻⁶ cm/s
- Papp A→B at 2 h [4]: 9.28 ± 0.88 ×10⁻⁶ cm/s
- recovery at 2 h [4, 6]: 44.6 ± 2.3%
- recovery at 2 h [4, 7]: 50.4 ± 1.7%
- P-gp substrate status (Caco-2 cell monolayers): not P-gp substrates
- Expression level of cellular P-gp (P-gp [5]): did not influence
- Expression of caspase 8 (caspase 8; [8]): did not change
- Expression of caspase 8 (caspase 8; [9]): did not change
- Expression of caspase 9 (caspase 9; [8]): significantly upregulated
- Expression of caspase 9 (caspase 9; [9]): did not change

SMILES: CC(O)C1(O)CCC2(O)C3CCC4CC(OC(=O)c5cccnc5)CCC4(C)C3CC(OC(=O)C=Cc3ccccc3)C12C [Compound 1a, 3β,12β,14β,17β,20(S)-pentahydroxy-5α-pregnan-3β-O-nicotinate-12β-O-(E)-cinnamate]
- Fluorescence intensity of Rh-123 in cells (inhibited efflux) (P-gp [1]): significantly increased
- Ka (association rate constant) (Human ABCB1): 41600 M⁻¹ s⁻¹
- Kd (dissociation rate constant) (Human ABCB1): 0.155 s⁻¹
- Kd (Human ABCB1): 3.72 µM
- Ka (association rate constant) (Human ABCB1; listed as compound 1a): > 10^4 M^−1s^−1
- koff (Human ABCB1; read-out: Kd (dissociation rate constant)): > 0.1 s⁻¹
- Apoptosis rates of HepG2/Dox cells (HepG2/Dox cells [2]): significantly increased
- Cytotoxicity to HepG2/Dox cells (viability) (HepG2/Dox cells [3]): non-cytotoxic
- Fres to doxorubicin (HepG2/Dox cells [3]; doxorubicin + modulator 5 µM): 1.9
- Fsen to doxorubicin (HepG2/Dox cells [3]; doxorubicin + modulator 5 µM): 18.8
- Fres to doxorubicin (HepG2/Dox cells [3]; doxorubicin + modulator 10 µM): 4.1
- Fsen to doxorubicin (reversal fold) (HepG2/Dox cells [3]; doxorubicin + modulator 10 µM): 18.8
- Fsen to doxorubicin (reversal fold) (HepG2/Dox cells [3]; doxorubicin + modulator 10 µM, listed as compound 1a): 8.6
- Reversal of resistance of HepG2/Dox cells to paclitaxel and vinblastine (HepG2/Dox cells [3]): completely reversed
- Fres to paclitaxel (HepG2/Dox cells [3]; paclitaxel + modulator 5 µM): 0.8
- Fsen to paclitaxel (HepG2/Dox cells [3]; paclitaxel + modulator 5 µM): 155.0
- Fres to paclitaxel (HepG2/Dox cells [3]; paclitaxel + modulator 10 µM): 0.4
- Fsen to paclitaxel (reversal fold) (HepG2/Dox cells [3]; paclitaxel + modulator 10 µM): 335.8
- Fres to vinblastine (HepG2/Dox cells [3]; vinblastine + modulator 5 µM): 1.8
- Fsen to vinblastine (HepG2/Dox cells [3]; vinblastine + modulator 5 µM): 79.3
- Fres to vinblastine (HepG2/Dox cells [3]; vinblastine + modulator 10 µM): 1.0
- Fsen to vinblastine (reversal fold) (HepG2/Dox cells [3]; vinblastine + modulator 10 µM): 140
- Papp B→A at 2 h [4]: 0.24 ± 0.02 ×10⁻⁶ cm/s
- Papp A→B at 2 h, 2 μM [4]: 0.27 ×10⁻⁶ cm/s
- Papp A→B at 2 h [4]: 0.27 ± 0.03 ×10⁻⁶ cm/s
- recovery at 2 h [4, 6]: 5.3 ± 0.5%
- recovery at 2 h [4, 7]: 12.2 ± 0.7%
- P-gp substrate status (Caco-2 cell monolayers): not P-gp substrates
- Expression level of cellular P-gp (P-gp [5]): did not influence
- Expression of caspase 8 (caspase 8; [8]): did not change
- Expression of caspase 8 (caspase 8; [9]): did not change
- Expression of caspase 9 (caspase 9; [8]): significantly upregulated
- Expression of caspase 9 (caspase 9; [9]): did not change

SMILES: COc1ccc(CCN(C)CCCC(C#N)(c2ccc(OC)c(OC)c2)C(C)C)cc1OC (stereo not drawn) [VRP, Verapamil, reference compound]
- Apoptosis rates of HepG2/Dox cells (HepG2/Dox cells [2]): significantly increased
- Fres to doxorubicin (HepG2/Dox cells [3]; doxorubicin + modulator 10 µM): 1.1
- Fres to paclitaxel (HepG2/Dox cells [3]; paclitaxel + modulator 10 µM): 1.3
- Fres to vinblastine (HepG2/Dox cells [3]; vinblastine + modulator 10 µM): 2.1
